# According to publication PMC3354620 (Journal of the American Chemical Society, 2011):
# Entries after “also recorded” stand apart in the source; their conditions may differ.
# Assays:
# [1] = target: T1, A/M2-V27A (Influenza A virus, UniProt P0DOF5, V27A); conditions: cited from earlier work
# [2] = tested on: influenza A virus (A/Udorn/72) V27A mutant; format: cell-based
# [3] = target: T1, A/M2-V27A; format: cell-based, Influenza A virus (Udorn strain)
Structure (SMILES),effect of V27A mutation on channel sensitivity to drug [1],inhibition of A/M2-V27A virus replication [2],inhibition against V27A mutant (in words) [3]
NC12CC3CC(CC(C3)C1)C2 [Amantadine],entirely resistant,no inhibition; also recorded: no effect,completely unable to inhibit
CC(N)C12CC3CC(CC(C3)C1)C2 (stereo not shown) [rimantadine],entirely resistant,–,–
